Assay results reported in patent US6337089B1, “Microcapsule containing core material and method for producing the same” (Seiwa Kasei Company, Limited, priority 1998, dated 2002).

Experiment: Analysis Method 8: ultraviolet ray transmittance on surgical tape
Conditions: wave-length of 310 nm; applied amounts differ per sample
Procedure: A measuring sample was applied on a surgical tape (TRANSPORE TAPE, manufactured by 3M Corp.), this was irradiated with a ultraviolet ray, and the amount of the transmitted light was measured by a SPF analyzer, (UV-1000S, manufactured by LABSPHERE Corp., US). The numerical value in the examples is an average of 40 values. The amount of the sample applied on a surgical tape is 2 μl/cm^2 and a certain amount when measuring SPF value and ultraviolet ray transmittance, respectively.

CCCCC(CC)COC(=O)C=Cc1ccc(OC)cc1 (stereo not shown) [2-ethylhexyl p-methoxy-cinnamate, 2-ethylhexyl p-methoxycinnamate]
Ultraviolet ray transmittance: 2.2
